This is an account of results in publication PMC3914206.

Common to all, as to assay type: binding
Holding throughout (set-up): KINOMEscan: ABL1(F317L)-phosphorylated / KINOMEscan: ABL1(H396P)-nonphosphorylated / KINOMEscan: ABL1(H396P)-phosphorylated / KINOMEscan: ABL1(M351T)-phosphorylated / KINOMEscan: ABL1(T315I)-phosphorylated / KINOMEscan: ABL1-nonphosphorylated / KINOMEscan: ABL1-phosphorylated / KINOMEscan: ACVR2A / KINOMEscan: ACVR2B / KINOMEscan: ADCK3 / KINOMEscan: ADCK4 / KINOMEscan: AKT1 / KINOMEscan: AKT3 / KINOMEscan: ALK / KINOMEscan: ARK5 / KINOMEscan: AURKA / KINOMEscan: AURKC / KINOMEscan: BIKE / KINOMEscan: BMPR1A / KINOMEscan: BMPR1B / KINOMEscan: BMX / KINOMEscan: BRK / KINOMEscan: BRSK1 / KINOMEscan: BRSK2 / KINOMEscan: CAMK1 / KINOMEscan: CAMK1D / KINOMEscan: CAMK1G / KINOMEscan: CAMK2A / KINOMEscan: CAMK2B / KINOMEscan: AAK1 / KINOMEscan: CAMK2D / KINOMEscan: CAMK2G / KINOMEscan: ABL1(F317I)-nonphosphorylated / KINOMEscan: ABL1(F317I)-phosphorylated / KINOMEscan: ABL1(F317L)-nonphosphorylated: unit: % Ctrl

Experiment [1] has as its target T1, panel of 442 kinases (Homo sapiens, UniProt Q13555).
T1 construct: purchased KINOMEscan
The note with it: Compound Concentration 10 µM. An excerpt: (§1) We assessed the selectivity of members of this scaffold using the KINOMEscan methodology across a near comprehensive panel of 442 kinases [[18,27]].

The target in experiment [2] is T2, panel of 442 kinases (Homo sapiens, UniProt Q06418).
T2 construct: purchased KINOMEscan
T2 sequence (Q06418 41-890): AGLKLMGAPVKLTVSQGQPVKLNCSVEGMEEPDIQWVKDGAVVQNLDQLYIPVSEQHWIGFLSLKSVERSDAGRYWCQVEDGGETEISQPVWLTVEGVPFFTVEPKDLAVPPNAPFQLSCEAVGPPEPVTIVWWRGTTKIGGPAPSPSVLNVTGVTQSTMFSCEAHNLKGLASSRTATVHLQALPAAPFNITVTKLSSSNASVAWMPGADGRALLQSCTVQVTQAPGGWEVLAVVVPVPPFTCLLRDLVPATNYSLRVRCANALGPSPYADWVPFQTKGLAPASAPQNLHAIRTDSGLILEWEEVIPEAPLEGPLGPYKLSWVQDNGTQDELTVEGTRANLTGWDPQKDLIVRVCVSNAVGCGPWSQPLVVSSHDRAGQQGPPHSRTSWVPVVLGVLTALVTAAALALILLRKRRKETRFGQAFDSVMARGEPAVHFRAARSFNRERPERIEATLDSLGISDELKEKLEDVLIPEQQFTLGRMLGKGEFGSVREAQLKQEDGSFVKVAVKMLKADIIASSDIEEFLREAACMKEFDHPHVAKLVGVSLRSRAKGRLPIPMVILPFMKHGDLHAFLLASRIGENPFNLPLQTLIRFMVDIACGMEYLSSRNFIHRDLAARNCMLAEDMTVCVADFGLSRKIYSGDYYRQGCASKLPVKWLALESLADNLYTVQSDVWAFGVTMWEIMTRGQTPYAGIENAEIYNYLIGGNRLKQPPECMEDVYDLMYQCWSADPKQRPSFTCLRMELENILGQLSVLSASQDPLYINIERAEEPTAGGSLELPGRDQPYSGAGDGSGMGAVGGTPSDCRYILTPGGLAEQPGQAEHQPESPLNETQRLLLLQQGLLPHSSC
Conditions: kinase TYRO3; compound concentration 10 µM.
From the text: as §1

The target of experiment [3] is T3, panel of 442 kinases (Homo sapiens, UniProt P68400).
T3 construct: purchased KINOMEscan
The note with it: Compound Concentration 10 µM.
From the text: as §1

T3 sequence (P68400 whole entry): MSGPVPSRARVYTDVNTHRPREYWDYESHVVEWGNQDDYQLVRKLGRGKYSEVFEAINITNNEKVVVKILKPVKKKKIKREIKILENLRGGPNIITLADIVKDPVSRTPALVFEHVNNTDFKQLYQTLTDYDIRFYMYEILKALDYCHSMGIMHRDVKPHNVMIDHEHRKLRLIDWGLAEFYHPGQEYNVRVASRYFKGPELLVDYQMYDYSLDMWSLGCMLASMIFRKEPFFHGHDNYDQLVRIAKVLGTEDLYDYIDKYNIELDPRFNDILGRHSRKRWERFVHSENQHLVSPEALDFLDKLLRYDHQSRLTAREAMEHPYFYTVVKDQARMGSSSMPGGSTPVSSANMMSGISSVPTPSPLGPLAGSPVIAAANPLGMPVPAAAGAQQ
T1 sequence (Q13555 whole entry): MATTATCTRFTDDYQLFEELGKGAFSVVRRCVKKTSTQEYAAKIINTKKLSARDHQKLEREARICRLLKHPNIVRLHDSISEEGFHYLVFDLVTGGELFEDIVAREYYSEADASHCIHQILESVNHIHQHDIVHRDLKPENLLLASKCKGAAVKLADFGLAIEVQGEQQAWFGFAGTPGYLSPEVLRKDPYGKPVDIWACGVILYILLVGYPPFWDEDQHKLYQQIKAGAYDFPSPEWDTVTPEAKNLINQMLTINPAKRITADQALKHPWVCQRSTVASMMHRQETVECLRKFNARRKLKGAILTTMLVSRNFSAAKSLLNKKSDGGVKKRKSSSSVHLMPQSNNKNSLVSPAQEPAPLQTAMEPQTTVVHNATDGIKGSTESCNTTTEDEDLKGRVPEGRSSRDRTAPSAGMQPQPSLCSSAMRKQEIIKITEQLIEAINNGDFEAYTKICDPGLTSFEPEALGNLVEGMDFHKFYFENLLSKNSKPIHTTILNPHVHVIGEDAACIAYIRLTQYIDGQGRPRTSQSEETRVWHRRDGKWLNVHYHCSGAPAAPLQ

Consider `COc1cc(C(=O)N2CCC(N3CCN(C)CC3)CC2)ccc1Nc1ncc2c(n1)N(C)c1ccccc1C(=O)N2C` [15 (LRRK2-IN-1)], for which the “KINOMEscan: CAMK2G” value in experiment [1] is on record as 47. Also, the “% Ctrl, TYRO3” value in experiment [2] turned out to be 100 % Ctrl. Further, the “KINOMEscan: CSNK2A1” value in experiment [3] is 100.

As for `COc1cc(C(=O)N2CCC(N3CCN(C)CC3)CC2)ccc1Nc1ncc2c(n1)N1CCc3cccc(c31)C(=O)N2C` [Compound 24], the “KINOMEscan: CAMK2G” value in experiment [1] was 76. Further, the “% Ctrl, TYRO3” value in experiment [2] was found to be 100 % Ctrl.

In the case of `COc1cc(C(=O)N2CCC(N3CCN(C)CC3)CC2)ccc1Nc1ncc2c(n1)N(C1CCCC1)c1ccccc1C(=O)N2C` [Compound 25, 11-cyclopentyl-2-((2-methoxy-4-(4-(4-methylpiperazin-1-yl)piperidine-1-carbonyl)phenyl)amino)-5-methyl-5H-benzo[e]pyrimido[5,4-b][1,4]diazepin-6(11H)-one], the “KINOMEscan: CAMK2G” value in experiment [1] was found to be 98. For the same molecule, the “% Ctrl, TYRO3” value in experiment [2] was found to be 100 % Ctrl. Moreover, in experiment [3], the “KINOMEscan: CSNK2A1” value turned out to be 100.

Turning to `CCOc1cc(C(=O)N2CCC(N3CCN(C)CC3)CC2)ccc1Nc1ncc2c(n1)N(C1CCCC1)c1ccccc1C(=O)N2C` [Compound 26], the “KINOMEscan: CAMK2G” value in experiment [1] is given as 94. The “% Ctrl, TYRO3” value in experiment [2] stood at 100 % Ctrl. Moreover, in experiment [3], the “KINOMEscan: CSNK2A1” value came out at 89.
